Experimental data reported in patent US8119589B2, “Modulation of CD4+ T cell responses by a tick saliva protein, Salp15 and polypeptides derived therefrom” (University of North Carolina at Charlotte, priority 2004, dated 2012).

Key:
B cells and macrophages = assay: Receptor capping in B cells and macrophages (anti-IgM, anti-CD16/CD32 cross-linking); type: cell-based, mouse; conditions: 50 μg/mL Salp15; anti-IgM and Fc engagement
Protocol: For receptor capping studies, mouse primary B and CD11^+ cells were purified by positive selection using biotin anti-mouse CD45R/B220 clone RA3-6B2 and biotin anti-mouse CD11b clone M1/70 (BD Biosciences Pharmingen) respectively, followed by incubation with magnetic microbeads. The cells were analyzed for receptor capping using 25 μg/mL anti-mouse IgM and 25 μg/mL anti-mouse CD16/CD32 respectively, cross-linked with 25 μg/mL of anti-rat IgG594 for 10 min in the presence or absence of 50 μg/mL of Salp15. CD4^+ and CD8^+ T cells were purified by negative selection and incubated with 10 μg/mL anti-CD3 and 1 μg/mL anti-CD28 cross-linked with 10 μg/mL of anti-hamster IgG488 for 10 min in the presence or absence of 50 μg/mL of Salp15.

AP-1 DNA binding = conditions: Anguita et al., 2002; cited from earlier work
CD4+ T cells [1] = assay: INFγ-mediated STAT1 phosphorylation in CD4+ T cells; type: cell-based, mouse; conditions: 20 ng/mL INFγ; Salp15 50 μg/mL
Protocol: For tyrosine phosphorylation western analysis, cells were lysed in 60 mM Tris (pH 7.4) containing 150 mM NaCl, 5 mM EDTA, 1 mM EGTA, 1 mM β-glycerol phosphate, 2.5 mM sodium pyrophosphate, 25 mM NaF, 2 mM sodium orthovanadate, 1% Triton-X 100, 0.25% sodium deoxycholate, 1 mM PMSF and protease inhibitors for 15 min on ice, sonicated 4×5 sec and incubated at 37° C. for 10 min. The lysate was cleared by centrifugation and boiled in SDS-sample buffer. The samples were subjected to SDS-PAGE, transferred to a nitrocellulose membrane and immunoblotted with anti-pTyr, anti-pPLCγ1 and anti-Vav1, anti-pSrc family (Tyr^416) to measure p-Lck^394 (Alonso et al., 2004), anti-Lck, anti-pZap70 (Tyr^319), anti-Zap70, p44/42 and p44/42 (phopho-Tyr^204/Thr^202). Vav1 was immunoprecipitated using anti-Vav1 and protein A-agarose beads overnight, subjected to SDS-PAGE followed by immunoblotting with anti-pTyr or anti-Vav1. To examine the effect of Salp15 on T cell stimulation with INFγ, CD4^+ T cells were preincubated with Salp15 at 50 μg/mL followed by activation with 20 ng/mL of mouse recombinant INFγ (R & D Systems, Minneapolis, Minn., U.S.A.) for 30 min at 37° C. The cells were lysed as above and subjected to SDS-PAGE and immunoblotting with anti-pSTAT1 and anti-STAT1.

CD4+ T cells [2] = assay: Salp15488 binding on cell surface by confocal microscopy; design: species or system mouse
Protocol: For colocalization experiments, Jurkat and CD4^+ T cells were cytospun as described herein. HeLa and HeLa-CD4 cells were grown on chamber slides. The cells were fixed and stained with anti-CD4 and Salp15 as follows. Purified Salp15 was labeled using Alexa-488 with the Protein Labeling Kit (Molecular Probes) according to the manufacturer's instructions. Fixed cells were blocked with 5% normal serum and anti-CD16/CD32 (1:100) in PBS, incubated with 1 μg of monoclonal biotinylated anti-CD4 (L3T4) (BD Biosciences Pharmingen) followed by streptavidin594 staining. The cells were then stained with 20 μg/mL of Salp15488. For competition assays, cells were first blocked with 5% normal serum, incubated with either polyclonal anti-CD4 antibody, MT310, OKT4, normal rabbit IgG, Salp15 (0.5 mg/mL) or lysozyme (0.5 mg/mL) followed by staining with Salp15488. All samples were mounted in a GVA Mount (Zymed, San Francisco, Calif., U.S.A.) and visualized with an Olympus Confocal microscope equipped with Fluoview 3.0 software.

CD8+ T cells = assay: Lipid raft reorganization (CTB594 staining) in anti-CD3/CD28 activated CD8+ T cells; type: cell-based, mouse; conditions: Salp15 pretreatment
Protocol: For the visualization of lipid rafts, phospho-tyrosine, and cytoskeleton reorganization, CD4^+, CD8^+ or Jurkat cells were cytospun for 10 minutes at 1000 RPM onto positively charged microslides (Fisher Scientific, Hampton, N.H., U.S.A.). The cells were fixed with 3.7% paraformaldehyde (Sigma Chemical Co.) for 15 minutes and stained with CTB594 (Molecular Probes, Eugene, Oreg., U.S.A.), AlexaFluor488 labeled phalloidin (Molecular Probes) or (1:50) biotin-conjugated anti-p-Tyr (PY99) followed by Streptavidin-AlexaFluor594 (1:100, Molecular Probes). For p-LAT and p-PLCγ1 staining, fixed cells were treated with PBS containing 0.1% Triton-X 100 and 100 mM glycine for 15 min at room temperature and stained using rabbit p-LAT (Tyr^191) or rabbit anti-p-PLCγ1 (Tyr^783) probed with anti-rabbit IgG488 (Molecular Probes).
For receptor capping studies, mouse primary B and CD11^+ cells were purified by positive selection using biotin anti-mouse CD45R/B220 clone RA3-6B2 and biotin anti-mouse CD11b clone M1/70 (BD Biosciences Pharmingen) respectively, followed by incubation with magnetic microbeads. The cells were analyzed for receptor capping using 25 μg/mL anti-mouse IgM and 25 μg/mL anti-mouse CD16/CD32 respectively, cross-linked with 25 μg/mL of anti-rat IgG594 for 10 min in the presence or absence of 50 μg/mL of Salp15. […]

CD4+ T cells [3] = assay: Actin polymerization (phalloidin488 staining, F-actin immunoblot, flow cytometry) in activated CD4+ T cells; type: cell-based, mouse; conditions: Salp15 pretreatment; effect seen as early as 1 minute of activation
Protocol: For the visualization of lipid rafts, phospho-tyrosine, and cytoskeleton reorganization, CD4^+, CD8^+ or Jurkat cells were cytospun for 10 minutes at 1000 RPM onto positively charged microslides (Fisher Scientific, Hampton, N.H., U.S.A.). The cells were fixed with 3.7% paraformaldehyde (Sigma Chemical Co.) for 15 minutes and stained with CTB594 (Molecular Probes, Eugene, Oreg., U.S.A.), AlexaFluor488 labeled phalloidin (Molecular Probes) or (1:50) biotin-conjugated anti-p-Tyr (PY99) followed by Streptavidin-AlexaFluor594 (1:100, Molecular Probes). […]
Actin polymerization assay was performed as described earlier (Krishnan et al., 2004). […] The cells were washed, resuspended in PBS and analyzed for F-actin content on a FACSCalibur with CellQuest software (Beckton Dickinson, Mountain View, Calif., U.S.A.). […] The cells were washed twice with PBS and analyzed by flow cytometry.
The amount of F-actin in activated CD4+ T cells in the presence and absence of Salp15 was quantified by ultracentrifugation and Western blotting. […] Equal amounts of total protein were loaded on the SDS-gel based on the total actin determined from a sample of the cell lysate.

In the case of “Salp15: secreted salivary protein from Ixodes scapularis, SEQ ID NO: 2; recombinant His-tagged, produced in Drosophila S2 cells”, the “Lipid raft reorganization (receptor capping)” value (B cells and macrophages) is listed as “did not affect”, the “AP-1 DNA binding activation” value (AP-1 DNA binding) is listed as “does not affect” and the “INFγ-mediated phosphorylation of STAT1” value (CD4+ T cells [1]) is listed as “unaffected”. For the same substance, the “Binding to CD4+ T cells” value (CD4+ T cells [2]) was “bind specifically”, the Lipid raft reorganization (CD8+ T cells) was “unaffected” and the “Phalloidin488 staining / amount of F-actin” value (CD4+ T cells [3]) was “reduced”.
